Entries after “also recorded” stand apart in the source; their conditions may differ. Read-outs that look alike come from different tables or passages of the source.

Experiment [1] deals with TR-BBB cells. The experiment is described as follows: Inhibition of [14C]L-citrulline uptake in TR-BBB cells by unlabeled amino acids, transporter inhibitors and drugs. Type of experiment: cell-based, rat. The conditions noted are these: for Mode of inhibition of [14C]L-citrulline uptake / Ki: Lineweaver-Burk plot; for Ki: 300 μM inhibitor; for Effect on [14C]L-citrulline uptake: unlabeled compound present. The method, then: (§1) The TR-BBB cells established from transgenic rats harboring the temperature-sensitive simian virus 40 large T-antigen, an in vitro BBB model, were cultured at 33 °C as described previously (21). TR-BBB cells were received from Professor Tetsuya Terasaki (Tohoku University, Japan) and were cultured with Dulbecco’s modified Eagle’s medium (Invitrogen, San Diego, CA), supplemented with 10% fetal bovine serum, 100 U/mL penicillin, 100 μg/mL streptomycin (Invitrogen, San Diego, CA) and 15 μg/L endothelial cell growth factor (Roche, Mannheim, Germany) at 33 °C in a humidified atmosphere of 5% CO2/air. On rat tail collagen type I-coated 24 well culture plates (IWAKI, Tokyo, Japan) initial seeding was carried out at 1 × 10^5 cells/well for the uptake study. After incubation for 2 days at 33 °C, the cultures became confluent and then they were used in the transport study. L-Citrulline free medium was used all experiments except for experiments on saturation kinetics of [^14C]L-citrulline uptake (Fig. 2), Lineweaver-Burk plots for [^14C]L-citrulline uptake (Fig. 4), or inhibitory effect of L-amino acids as a control (Table 2).
(§2) The [^14C] L-citrulline uptake study was performed according to the previous report. Briefly, extracellular fluid (ECF) buffer containing [^14C]L-citrulline (44.4 μM) in the presence or absence of unlabeled inhibitors was added to the TR-BBB cells and then incubated at pH 7.4 and 37 °C for the designated time (5 min). Uptake was terminated by the addition of ice-cold ECF buffer. A Na^+ free transport medium was prepared by using LiCl, choline chloride, sodium gluconate and KHCO3 instead of NaCl and NaHCO3, respectively. The cells were then solubilized by incubation overnight in 750 μL of 1 N NaOH at room temperature, and the measurement of radioactivity was performed in a liquid scintillation counter (LS6500; Beckman, Fullerton, CA). Cell to medium ratio (μL/mg protein) was calculated as follows: the radioactivity (dpm/μL) in the sample per milligram cell protein (dpm/mg protein).
To analyze the competitive nature of L-dopa and gabapentin for [^14C]L-citrulline uptake, Lineweaver-Burk plots were generated. The inhibitory constant (K i) was calculated from Eq. (2):2 V=Vmax⋅C/Km⋅1+I/Ki+C where I corresponds to the concentration of L-dopa or gabapentin, respectively.

The test system of experiment [2] is TR-BBB cells. Briefly: [14C]L-citrulline uptake study in TR-BBB cells (time course, ion dependence, saturation kinetics). The conditions noted are these: ion dependence: Na+ and/or Cl- replaced in the uptake buffer by the named salt; pH 7.4, 37 °C, 5 min; mean ± S.E.M. It counts as in vitro ADME, rat. The method, then: as §1, §2
For kinetic studies, the Michaelis-Menten constant (K m) and the maximum uptake rate (V max) of [^14C] L-citrulline were estimated from Eq. (1):1 V=Vmax⋅C/Km+C
Where V and C are the initial uptake rate of [^14C] L-citrulline at 5 min and the concentration of L-citrulline, and V max is the maximum uptake rate for the saturable component.

The mark [3] stands for this setting: Table 4, drug 0.5 mM, pH 7.4, 37 °C, 5 min, mean ± S.E.M.
Where [4] appears, read: Table 2, L-amino acid 2 mM, pH 7.4, 37 °C, 5 min, mean ± S.E.M.
[5] abbreviates: Table 3, transporter inhibitor 2 mM, pH 7.4, 37 °C, 5 min, mean ± S.E.M.

In the case of `N[C@@H](Cc1ccc(O)c(O)c1)C(=O)O` [L-Dopa], the “Mode of inhibition of [14C]L-citrulline uptake” value in experiment [1] is reported as “competitively inhibited”. Moreover, in experiment [1] (pH 7.4, 37 °C, 5 min), the Ki is 486 µM. In experiment [1] (Rattus norvegicus, 5 min, TR-BBB cells, 5 min, pH 7.4, 37 °C, read-out: IC50 for inhibition of [14C]L-citrulline uptake), the IC50 stood at 501 µM. For the same molecule, in experiment [1] (TR-BBB cells), the “Effect on [14C]L-citrulline uptake” value is listed as “strongly inhibited; also recorded: significantly inhibited”. The “Uptake of [14C]L-citrulline (% of control)” value (“Uptake … (% of control)” below) is on record as 52.1 ± 6.6 % of control in experiment [1] (setting [3]) and 21.6 ± 2.8 % of control in experiment [1] (Table 4, drug 2 mM, pH 7.4, 37 °C, 5 min, mean ± S.E.M.).
Consider `CC(C)C[C@H](N)C(=O)O` [L-Leucine], for which the “Uptake … (% of control)” value in experiment [1] (setting [4]) was 49.4 ± 5.8 % of control; in experiment [1] (Table 2, L-amino acid 20 mM, pH 7.4, 37 °C, 5 min, mean ± S.E.M.), 17.2 ± 3.9 % of control.
As for `C=C[C@H]1C[N@@]2CC[C@H]1C[C@@H]2[C@@H](O)c1ccnc2ccc(OC)cc12` [Qunidine, Quinidine], the “Uptake … (% of control)” value in experiment [1] (5 min, 500 µM) is 52.5 ± 3.0 % of control. Besides, the “Effect on [14C]L-citrulline uptake” value in experiment [1] (TR-BBB cells) was “significantly inhibited”.
With `[Cl-].[Li+]` [LiCl], the “Uptake … (% of control)” value in experiment [2] is given as 116.2 ± 5.2 % of control.
With `NC(N)=NCCCC[C@H](N)C(=O)O` [Homoarginine], in experiment [1] (TR-BBB cells), the “Effect on [14C]L-citrulline uptake” value was “no inhibition effect”. Moreover, the “Uptake … (% of control)” value in experiment [1] (setting [5]) was 95.98 ± 13.8 % of control.
Take `N[C@@H](CCC(=O)O)C(=O)O` [L-Glutamate]: the activity at 2000 µM in experiment [1] (Rattus norvegicus, 5 min, pH 7.4, read-out: Uptake of [14C]L-citrulline (% of control)) was 103 ± 7.8%. In experiment [1] (TR-BBB cells), the “Effect on [14C]L-citrulline uptake” value is on record as “did not inhibit”.
Take `CN1C(=O)C=CC1=O` [Methylmaleimide, L-methylmaleimide]: the “Effect on [14C]L-citrulline uptake” value in experiment [1] (TR-BBB cells) is reported as “no inhibition effect”. Moreover, the “Uptake … (% of control)” value in experiment [1] (setting [5]) is 103.2 ± 10.1 % of control.
Regarding `O=C([O-])[C@H](O)[C@@H](O)[C@H](O)[C@H](O)CO.[Na+]` [Sodium gluconate, sodium gluconate], the “Uptake … (% of control)” value in experiment [2] is 103.9 ± 6.8 % of control.
For the molecule `NCC1(CC(=O)O)CCCCC1` [Gabapentin], in experiment [1], the “Mode of inhibition of [14C]L-citrulline uptake” value is “competitively inhibited”. The same molecule gave a Ki in experiment [1] (pH 7.4, 37 °C, 5 min) of 679 µM. Also, the IC50 in experiment [1] (Rattus norvegicus, 5 min, pH 7.4, read-out: IC50 for inhibition of [14C]L-citrulline uptake) was found to be 223 µM. For the same molecule, the “Effect on [14C]L-citrulline uptake” value in experiment [1] (TR-BBB cells) is reported as “strongly inhibited; also recorded: significantly inhibited”. Besides, the “Uptake … (% of control)” value is on record as 45.0 ± 2.52 % of control in experiment [1] (setting [3]) and 29.6 ± 2.73 % of control in experiment [1] (Table 4, drug 5 mM, pH 7.4, 37 °C, 5 min, mean ± S.E.M.).
For `NC1(C(=O)O)CC2CCC1C2` (stereo not drawn) [BCH, 2-aminobicyclo-(2,2,1)-heptane-2-carboxylic acid], in experiment [1] (Rattus norvegicus, 5 min, Table 3, transporter inhibitor 2 mM, pH 7.4, 37 °C, 5 min, mean ± S.E.M., read-out: Uptake of [14C]L-citrulline (% of control)), the activity at 2000 µM was 25.3 ± 4.4%. The activity at 20000 µM in experiment [1] (Rattus norvegicus, 5 min, Table 3, transporter inhibitor 20 mM, pH 7.4, 37 °C, 5 min, mean ± S.E.M., read-out: Uptake of [14C]L-citrulline (% of control)) turned out to be 28.1 ± 11.6%. Also, in experiment [1] (TR-BBB cells), the “Effect on [14C]L-citrulline uptake” value was “markedly inhibited”. In experiment [1] (discussion of Table 3), the “Decrease of [14C]L-citrulline uptake” value is “about 75%”.
On to `N[C@@H](CS)C(=O)O` [L-Cysteine], for which the activity at 2000 µM in experiment [1] (Rattus norvegicus, 5 min, Table 2, L-amino acid 2 mM, pH 7.4, 37 °C, 5 min, mean ± S.E.M., read-out: Uptake of [14C]L-citrulline (% of control)) amounted to 48.4 ± 2.6%. The “Effect on [14C]L-citrulline uptake” value in experiment [1] (TR-BBB cells) is listed as “significantly inhibited”.
For `CC(C)[C@H](N)C(=O)O` [L-Valine], the “Uptake … (% of control)” value in experiment [1] (setting [4]) is given as 31.5 ± 1.4 % of control.
For the molecule `N[C@@H](CC(=O)O)C(=O)O` [L-Aspatate, L-aspartate], the “Effect on [14C]L-citrulline uptake” value in experiment [1] (TR-BBB cells) is on record as “did not inhibit”. Moreover, the “Uptake … (% of control)” value in experiment [1] (setting [4]) is reported as 101.5 ± 8.6 % of control.

Usually Ki stands for a measure of affinity in units of concentration, obtained from inhibition or displacement. Read a low Ki as higher affinity. Usually IC50 stands for the midpoint of a concentration-inhibition curve.

The record behind these values is article PMC5424428, “Characteristics of L-citrulline transport through blood-brain barrier in the brain capillary endothelial cell line (TR-BBB cells)” (Journal of Biomedical Science, 2017).
